Test [1] addresses PRMT5/MEP50 complex (Homo sapiens (Human), UniProt O14744). The experiment in a line: PRMT5 biochemical assay (3H-SAM filter plate, histone H2A substrate). As for the experimental part: Biochemical Assay Protocol
Compounds were solubilized and 3-fold diluted in 100% DMSO. […] Standard reactions were performed in a total volume of 50 μl in assay buffer, with histone H2A (5 μM final) as substrate. To this was added the PRMT5/MEP50 complex diluted to provide a final assay concentration of 5 nM and the compounds were allowed to preincubate for 15 to 20 minutes at room temperature. The reaction was initiated by adding S-[3H-methyl]-adenosyl-L-methionine (PerkinElmer) to final concentration of 1 μM. Following a 60 minutes incubation at 30° C., the reaction was stopped by adding 100 μL of 20% TCA. Each reaction was spotted onto filter plate (MultiScreen FB Filter Plate, Millipore), and washed 5 times with PBS buffer, Scintillation fluid was added to the filter plate and read in a scintillation counter. IC50 values were determined by fitting the data to the standard 4 parameters with Hill Slope using GraphPad Prism software.

Test [2] has as its system sDMA. Kind of test: Western blot for symmetric di-methyl arginine (sDMA) IC50 in Granta cells. It is filed as cell-based. The settings on record: Homo sapiens, 72 h; Granta-519 cell line, 3 days.
[3] abbreviates: PRMT5/MEP50 5 nM, histone H2A 5 μM, SAM 1 μM, read-out: PRMT5 IC50.

The structures appear in SMILES notation. Where two headings read alike, the source gives them in different places.

PRMT5/MEP50 complex, sequence (O14744 whole entry): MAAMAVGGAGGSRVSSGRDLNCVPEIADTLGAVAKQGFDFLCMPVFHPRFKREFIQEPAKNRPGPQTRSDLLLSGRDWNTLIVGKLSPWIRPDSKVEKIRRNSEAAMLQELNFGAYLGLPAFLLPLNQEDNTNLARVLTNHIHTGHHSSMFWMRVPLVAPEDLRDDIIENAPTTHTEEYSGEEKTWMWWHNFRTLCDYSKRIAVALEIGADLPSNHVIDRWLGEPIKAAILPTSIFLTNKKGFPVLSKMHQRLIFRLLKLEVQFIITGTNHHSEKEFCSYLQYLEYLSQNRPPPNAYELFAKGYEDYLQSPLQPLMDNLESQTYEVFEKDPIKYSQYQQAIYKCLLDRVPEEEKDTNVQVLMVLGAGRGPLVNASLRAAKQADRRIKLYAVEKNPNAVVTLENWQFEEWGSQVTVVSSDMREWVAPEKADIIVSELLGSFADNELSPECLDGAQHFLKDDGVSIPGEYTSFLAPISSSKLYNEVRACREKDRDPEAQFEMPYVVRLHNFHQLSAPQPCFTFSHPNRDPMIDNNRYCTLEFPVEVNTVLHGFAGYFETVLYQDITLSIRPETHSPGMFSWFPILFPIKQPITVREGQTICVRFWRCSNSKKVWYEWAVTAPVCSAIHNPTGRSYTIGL
PRMT5/MEP50 complex, sequence (Q9BQA1 whole entry partner): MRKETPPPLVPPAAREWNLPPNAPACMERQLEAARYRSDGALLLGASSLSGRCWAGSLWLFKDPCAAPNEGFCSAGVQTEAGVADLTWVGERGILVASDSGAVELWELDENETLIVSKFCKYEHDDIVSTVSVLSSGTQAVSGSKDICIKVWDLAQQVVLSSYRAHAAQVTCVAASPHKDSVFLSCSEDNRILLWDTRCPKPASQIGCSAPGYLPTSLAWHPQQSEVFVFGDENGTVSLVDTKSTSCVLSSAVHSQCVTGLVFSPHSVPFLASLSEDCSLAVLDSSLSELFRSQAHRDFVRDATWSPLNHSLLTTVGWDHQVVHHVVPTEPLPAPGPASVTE

Turning to `CO/N=c1\[nH]cnc2c1ccn2[C@@H]1O[C@H](COc2ccc3ccc(NOC)nc3c2)[C@@](C)(O)[C@H]1O` [Example 45, (Z)-7-((2R,3R,4S,5R)-3,4-dihydroxy-5-(((2-(methoxyamino)quinolin-7-yl)oxy)methyl)-4-methyltetrahydrofuran-2-yl)-3,7-dihydro-4H-pyrrolo[2,3-d]pyrimidin-4-one O-methyl oxime], the IC50 in test [1] (setting [3]) amounted to 11500 nM.

Turning to `Cc1cnc2cc(OC[C@H]3O[C@@H](n4ccc5c(N)ncnc54)[C@H](O)[C@]3(C)O)ccn12` [Example 68, (2R,3S,4R,5R)-5-(4-amino-7H-pyrrolo[2,3-d]pyrimidin-7-yl)-3-methyl-2-(((3-methylimidazo[1,2-a]pyridin-7-yl)oxy)methyl)tetrahydrofuran-3,4-diol], in test [1] (setting [3]), the IC50 is 0.9 nM.

In the case of `CO/N=c1/nc[nH]c2c1ccn2[C@@H]1O[C@H]([C@H](O)c2ccc(Cl)c(Cl)c2)[C@@](C)(O)[C@H]1O` [Example 37, 7-((2R,3R,4S,5R)-5-((R)-(3,4-dichlorophenyl)(hydroxy)methyl)-3,4-dihydroxy-4-methyltetrahydrofuran-2-yl)-1,7-dihydro-4H-pyrrolo[2,3-d]pyrimidin-4-one O-methyl oxime], the IC50 in test [1] (setting [3]) is 428 nM.

With `C[C@@]1(O)[C@@H](COc2ccc3cc(Br)c(N)nc3c2)O[C@@H](n2ccc3c(N)ncnc32)[C@@H]1O` [Example 12, (2R,3S,4R,5R)-2-(((2-amino-3-bromoquinolin-7-yl)oxy)methyl)-5-(4-amino-7H-pyrrolo[2,3-d]pyrimidin-7-yl)-3-methyltetrahydrofuran-3,4-diol], the figures for the half-maximal inhibitory concentration (IC50) in test [2] and in test [1] (setting [3]) were 1 nM and 0.5 nM, respectively.

Take `C[C@@]1(O)[C@@H](Cc2ccc(Cl)cc2CO)O[C@@H](n2ccc3c(N)ncnc32)[C@@H]1O` [Example 65, (2R,3S,4R,5R)-5-(4-amino-7H-pyrrolo[2,3-d]pyrimidin-7-yl)-2-(4-chloro-2-(hydroxymethyl)benzyl)-3-methyltetrahydrofuran-3,4-diol]: the IC50 in test [1] (setting [3]) is 413 nM.

For the compound `C[C@@]1(O)[C@@H](COc2ccccc2)O[C@@H](n2ccc3c(N)ncnc32)[C@@H]1O` [Example 20, (2R,3S,4R,5R)-5-(4-amino-7H-pyrrolo[2,3-d]pyrimidin-7-yl)-3-methyl-2-(phenoxymethyl)tetrahydrofuran-3,4-diol], the IC50 in test [1] (setting [3]) turned out to be 14300 nM.

Consider `Cc1ncnc2c1ccn2[C@@H]1O[C@H](COc2ccc3ccc(N)nc3c2)[C@@](C)(O)[C@H]1O` [Example 10, (2R,3S,4R,5R)-2-(((2-aminoquinolin-7-yl)oxy)methyl)-3-methyl-5-(4-methyl-7H-pyrrolo[2,3-d]pyrimidin-7-yl)tetrahydrofuran-3,4-diol], for which the IC50 in test [1] (setting [3]) amounted to 1.1 nM.

As for `C[C@@]1(O)[C@@H](COc2cccc(NC(N)=O)c2)O[C@@H](n2ccc3c(Cl)ncnc32)[C@@H]1O` [Example 41, 1-(3-(((2R,3S,4R,5R)-5-(4-chloro-7H-pyrrolo[2,3-d]pyrimidin-7-yl)-3,4-dihydroxy-3-methyltetrahydrofuran-2-yl)methoxy)phenyl)urea], the IC50 in test [1] (setting [3]) came to 200000 nM.

For the compound `C[C@@]1(O)[C@@H]([C@H](O)c2ccc(Cl)cc2)O[C@@H](n2ccc3/c(=N/O)[nH]cnc32)[C@@H]1O` [Example 46, (Z)-7-((2R,3R,4S,5R)-5-((R)-(4-chlorophenyl)(hydroxy)methyl)-3,4-dihydroxy-4-methyltetrahydrofuran-2-yl)-3,7-dihydro-4H-pyrrolo[2,3-d]pyrimidin-4-one oxime], in test [1] (setting [3]), the half-maximal inhibitory concentration (IC50) was found to be 92 nM.

Turning to `C[C@@]1(O)[C@@H](Cc2ccc3c(c2)OCO3)O[C@@H](n2ccc3c(N)ncnc32)[C@@H]1O` [Example 49, (2R,3S,4R,5R)-5-(4-amino-7H-pyrrolo[2,3-d]pyrimidin-7-yl)-2-(benzo[d][1,3]dioxol-5-ylmethyl)-3-methyltetrahydrofuran-3,4-diol], the IC50 in test [1] (setting [3]) is 229 nM.

As to `CNc1ncnc2c1ccn2[C@@H]1O[C@H](CSC)[C@@](C)(O)[C@H]1O` [Example 40, (2S,3S,4R,5R)-3-methyl-5-(4-(methylamino)-7H-pyrrolo[2,3-d]pyrimidin-7-yl)-2-((methylthio)methyl)tetrahydrofuran-3,4-diol], the IC50 in test [1] (setting [3]) came out at 14100 nM.

For `C[C@@]1(O)[C@@H](COc2cccc(NC(N)=O)c2)O[C@@H](n2ccc3c(N)ncnc32)[C@@H]1O` [Example 21, 1-(3-(((2R,3S,4R,5R)-5-(4-amino-7H-pyrrolo[2,3-d]pyrimidin-7-yl)-3,4-dihydroxy-3-methyltetrahydrofuran-2-yl)methoxy)phenyl)urea], the IC50 in test [1] (setting [3]) was found to be 7840 nM.

Take `Cc1ncnc2c1ccn2[C@@H]1O[C@H](COc2ccc3cccnc3c2)[C@@](C)(O)[C@H]1O` [Example 54, (2R,3S,4R,5R)-3-methyl-5-(4-methyl-7H-pyrrolo[2,3-d]pyrimidin-7-yl)-2-((quinolin-7-yloxy)methyl)tetrahydrofuran-3,4-diol]: the IC50 in test [1] (setting [3]) stood at 198 nM.

With `COC[C@H]1O[C@@H](n2ccc3c(N)ncnc32)[C@H](O)[C@]1(C)O` [Example 19, (2R,3S,4R,5R)-5-(4-amino-7H-pyrrolo[2,3-d]pyrimidin-7-yl)-2-(methoxymethyl)-3-methyltetrahydrofuran-3,4-diol], the IC50 in test [1] (setting [3]) worked out at 1440 nM.

Turning to `CO/N=c1\[nH]cnc2c1ccn2[C@@H]1O[C@H]([C@H](O)c2ccc(Cl)cc2)[C@@](C)(O)[C@H]1O` [Example 44, (Z)-7-((2R,3R,4S,5R)-5-((R)-(4-chlorophenyl)(hydroxy)methyl)-3,4-dihydroxy-4-methyltetrahydrofuran-2-yl)-3,7-dihydro-4H-pyrrolo[2,3-d]pyrimidin-4-one O-methyl oxime], the half-maximal inhibitory concentration (IC50) in test [1] (setting [3]) was found to be 3480 nM.

As for `Cc1ncnc2c1ccn2[C@@H]1O[C@H](Cc2ccc(Cl)cc2CO)[C@@](C)(O)[C@H]1O` [Example 64, (2R,3S,4R,5R)-2-(4-chloro-2-(hydroxymethyl)benzyl)-3-methyl-5-(4-methyl-7H-pyrrolo[2,3-d]pyrimidin-7-yl)tetrahydrofuran-3,4-diol], the IC50 in test [1] (setting [3]) came out at 1610 nM.

`C=C[C@@]1(O)[C@@H](COc2ccc3ccc(N)nc3c2)O[C@@H](n2ccc3c(N)ncnc32)[C@@H]1O` [Example 4, (2R,3S,4R,5R)-5-(4-amino-7H-pyrrolo[2,3-d]pyrimidin-7-yl)-2-(((2-aminoquinolin-7-yl)oxy)methyl)-3-vinyltetrahydrofuran-3,4-diol]: the IC50 in test [1] (setting [3]) amounted to 8.7 nM.

Consider `Cc1ncnc2c1ccn2[C@@H]1O[C@H]([C@H](O)c2ccc(F)c(C(F)(F)F)c2)[C@@](C)(O)[C@H]1O` [Example 61, (2R,3S,4R,5R)-2-((R)-(4-fluoro-3-(trifluorometh-yl)phenyl)(hydroxy)methyl)-3-methyl-5-(4-methyl-7H-pyrrolo[2,3-d]pyrimidin-7-yl)tetrahydrofuran-3,4-diol], for which the IC50 in test [1] (setting [3]) was 16 nM.

In the case of `C[C@@]1(O)[C@@H](C(=O)Nc2cccc(CN)c2)O[C@@H](n2ccc3c(Cl)ncnc32)[C@@H]1O` [Example 42, (2S,3S,4R,5R)-N-(3-(aminomethyl)phenyl)-5-(4-chloro-7H-pyrrolo[2,3-d]pyrimidin-7-yl)-3,4-dihydroxy-3-methyltetrahydrofuran-2-carboxamide], in test [1] (setting [3]), the IC50 is 9100 nM.

In the case of `Cc1ncnc2c1ccn2[C@@H]1O[C@H]([C@H](O)c2ccc(C(C)C)cc2)[C@@](C)(O)[C@H]1O` [Example 59, (2R,3S,4R,5R)-2-((R)-hydroxy(4-isopropylphenyl)methyl)-3-methyl-5-(4-methyl-7H-pyrrolo[2,3-d]pyrimidin-7-yl)tetrahydrofuran-3,4-diol], the IC50 in test [1] (setting [3]) stood at 399 nM.

Compound `CO/N=c1\[nH]cnc2c1ccn2[C@@H]1O[C@H](COc2ccc3ccc(N)nc3c2)[C@@](C)(O)[C@H]1O` [Example 32, 7-((2R,3R,4S,5R)-5-(((2-aminoquinolin-7-yl)oxy)methyl)-3,4-dihydroxy-4-methyltetrahydrofuran-2-yl)-3,7-dihydro-4H-pyrrolo[2,3-d]pyrimidin-4-one O-methyloxime] had an IC50 in test [1] of 10 nM.

For `C[C@@]1(O)[C@@H](Cc2ccc(Cl)c(Cl)c2)O[C@@H](n2ccc3cncnc32)[C@@H]1O` [Example 51, (2R,3S,4R,5R)-2-(3,4-dichlorobenzyl)-3-methyl-5-(7H-pyrrolo[2,3-d]pyrimidin-7-yl)tetrahydrofuran-3,4-diol], in test [1] (setting [3]), the IC50 worked out at 404 nM.

With `C[C@@]1(O)[C@@H](COc2ccc3cccnc3c2)O[C@@H](n2ccc3c(N)ncnc32)[C@@H]1O` [Example 53, (2R,3S,4R,5R)-5-(4-amino-7H-pyrrolo[2,3-d]pyrimidin-7-yl)-3-methyl-2-((quinolin-7-yloxy)methyl)tetrahydrofuran-3,4-diol], in test [1] (setting [3]), the IC50 turned out to be 5.8 nM.

As for `C[C@@]1(O)[C@@H](C(=O)Nc2cccc(CN)c2)O[C@@H](n2ccc3c(N)ncnc32)[C@@H]1O` [Example 43, (2S,3S,4R,5R)-5-(4-amino-7H-pyrrolo[2,3-d]pyrimidin-7-yl)-N-(3-(aminomethyl)phenyl)-3,4-dihydroxy-3-methyltetrahydrofuran-2-carboxamide], the IC50 in test [1] (setting [3]) was 825 nM.

Turning to `Cc1ncnc2c1ccn2[C@@H]1O[C@H]([C@H](O)c2ccc(OC(F)(F)F)cc2)[C@@](C)(O)[C@H]1O` [Example 60, (2R,3S,4R,5R)-2-((R)-hydroxy(4-(trifluoromethoxy)phenyl)methyl)-3-methyl-5-(4-methyl-7H-pyrrolo[2,3-d]pyrimidin-7-yl)tetrahydrofuran-3,4-diol], the half-maximal inhibitory concentration (IC50) in test [1] (setting [3]) is 368 nM.

The values are drawn from US10570140B2, “Selective inhibitors of protein arginine methyltransferase 5 (PRMT5)” (Prelude Therapeutics, Incorporated, priority 2017, dated 2020).
